Laboratory results taken from ChEMBL document CHEMBL6083193, “Advancing drug discovery: Thiadiazole derivatives as multifaceted agents in medicinal chemistry and pharmacology” (Bioorg Med Chem, 2024).
Converted amounts (≈) assume the structure as drawn.

What was measured:
[1] = Inhibition of alpha amylase (unknown origin) using starch as substrate pre-incubated for 30 mins followed by substrate addition and measured after 30 mins by absorbance based analysis; set-up: species or system Homo sapiens
[2] = test system: A549; experiment: Cytotoxicity against human A549 cells assessed as reduction in cell growth; format: functional, cell-based
[3] = Antioxidant activity assessed as DPPH radical scavenging activity measured for 30 mins by spectrophotometric analysis; format: functional
[4] = molecular target: Alpha glucosidase (Homo sapiens, UniProt O43451+P10253+P14410+Q2M2H8); experiment: Inhibition of Alpha-glucosidase (unknown origin); format: protein assay
[5] = Inhibition of Alpha-amylase (unknown origin); set-up: species or system Homo sapiens
[6] = test system: Mus musculus; experiment: Antiinflammatory activity against carrageenan-induced paw edema in Swiss mouse assessed as reduction in paw edema at 15 mg/kg, po relative to control; format: functional; set-up: scale not given: the % may be the effect or the level left
[7] = test system: COLO 205; experiment: Anticancer activity against human COLO 205 cells by MTT assay; format: functional, cell-based
[8] = test system: MCF7; experiment: Anticancer activity against human MCF7 cells by MTT assay; format: functional, cell-based
[9] = test system: A2780; experiment: Anticancer activity against human A2780 cells by MTT assay; format: functional, cell-based
[10] = test system: A549; experiment: Anticancer activity against human A549 cells by MTT assay; format: functional, cell-based
[11] = test system: Toxoplasma gondii; experiment: Antiparasitic activity against Toxoplasma gondii RH infected in human HFF cells; format: functional, organism-based

SMILES: O=C(CCl)Nc1nnc(NC(=O)c2cccs2)s1
- IC50 [1]: 36100 nM

SMILES: Cc1ccc(Nc2nnc(SCC(=O)N3N=C(c4ccccc4)CC3c3ccc([N+](=O)[O-])cc3)s2)cc1 (centres undefined)
- IC50 [2]: 10000 nM

SMILES: Cc1ccc(/C=C2\S/C(=N\c3nn(-c4ccccc4)nc3C(=O)Nc3nncs3)NC2=O)cc1
- IC50 [3]: 22.63 µg/mL (≈ 46.3 µM)

SMILES: S=C(Nc1ccc(Br)cc1)Nc1nsc(Nc2ccc(Cl)cc2)n1
- IC50 [4]: 2200 nM
- IC50 [5]: 1300 nM

SMILES: O=C(CCl)Nc1nn(-c2ccccc2)nc1C(=O)Nc1nncs1
- IC50 [3]: 22.63 µg/mL (≈ 62.2 µM)

SMILES: O=C1N/C(=N\c2nnc(C34CC5CC(CC(C5)C3)C4)s2)S/C1=C\c1ccc(F)cc1
- Activity [6]: 66.7%

SMILES: O=C(Nc1ccc(Cl)cc1)c1ccc(-c2nsc(-c3csc(-c4ccncc4)n3)n2)cc1
- IC50 [7]: 110 nM
- IC50 [8]: 110 nM
- IC50 [9]: 110 nM
- IC50 [10]: 110 nM

SMILES: O=C1N/C(=N\c2nnc(C34CC5CC(CC(C5)C3)C4)s2)S/C1=C\c1cccc(F)c1F
- Activity [6]: 66.7%

SMILES: Cc1nc[nH]c1-c1nnc(Nc2ccccc2Br)s1
- IC50 [11]: 4.7 µg/mL (≈ 14 µM)

SMILES: Cc1nc[nH]c1-c1nnc(Nc2cccc(F)c2)s1
- IC50 [11]: 4.7 µg/mL (≈ 17.1 µM)

SMILES: CC(C)Nc1nnc(SCC(=O)N2N=C(c3ccccc3)CC2c2ccc([N+](=O)[O-])cc2)s1 (centres undefined)
- IC50 [2]: 10000 nM

SMILES: O=C1CS/C(=N\c2nn(-c3ccccc3)nc2C(=O)Nc2nncs2)N1
- IC50 [3]: 44.35 µg/mL (≈ 115 µM)

SMILES: O=C1N/C(=N\c2nnc(C34CC5CC(CC(C5)C3)C4)s2)S/C1=C\c1ccc(Cl)cc1Cl
- Activity [6]: 66.7%

SMILES: O=C(NC1=NN2C(=O)CN=C2S1)c1cccs1
- IC50 [1]: 36100 nM

SMILES: O=[N+]([O-])c1ccccc1NC(=S)Nc1nsc(Nc2cccc(C(F)(F)F)c2)n1
- IC50 [4]: 2200 nM
- IC50 [5]: 1300 nM

SMILES: Cc1ccc(/C=C2\S/C(=N/c3nnc(C45CC6CC(CC(C6)C4)C5)s3)NC2=O)cc1
- Activity [6]: 66.7%

SMILES: COc1cccc(NC(=S)Nc2nsc(Nc3ccc(Cl)c(Cl)c3)n2)c1
- IC50 [4]: 2200 nM
- IC50 [5]: 1300 nM

SMILES: O=C1N/C(=N\c2nnc(C34CC5CC(CC(C5)C3)C4)s2)S/C1=C\c1ccc(O)cc1
- Activity [6]: 66.7%

SMILES: O=C1N/C(=N\c2nnc(C34CC5CC(CC(C5)C3)C4)s2)S/C1=C\c1c(F)cccc1F
- Activity [6]: 66.7%

SMILES: O=C1N/C(=N\c2nnc(C34CC5CC(CC(C5)C3)C4)s2)S/C1=C\c1ccc([N+](=O)[O-])cc1
- Activity [6]: 66.7%

SMILES: CCCCNc1nnc(SCC(=O)N2N=C(c3ccccc3)CC2c2ccc([N+](=O)[O-])cc2)s1 (centres undefined)
- IC50 [2]: 10000 nM

SMILES: Cc1nc[nH]c1-c1nnc(Nc2cccc(Cl)c2)s1
- IC50 [11]: 4.7 µg/mL (≈ 16.1 µM)

SMILES: COc1cccc(/C=C2\S/C(=N/c3nnc(C45CC6CC(CC(C6)C4)C5)s3)NC2=O)c1
- Activity [6]: 66.7%

SMILES: O=C1N/C(=N\c2nnc(C34CC5CC(CC(C5)C3)C4)s2)S/C1=C\c1ccccc1[N+](=O)[O-]
- Activity [6]: 66.7%

SMILES: Cc1nc[nH]c1-c1nnc(Nc2cccc(I)c2)s1
- IC50 [11]: 4.7 µg/mL (≈ 12.3 µM)

SMILES: O=[N+]([O-])c1cccc(Nc2nc(NC(=S)Nc3ccc(Cl)cc3Cl)ns2)c1
- IC50 [4]: 2200 nM
- IC50 [5]: 1300 nM

SMILES: CSc1ccc(C2SCC(=O)N2c2nnc(-c3ccccc3)s2)cc1 (centres undefined)
- IC50 [4]: < 500000 nM

SMILES: COc1ccc(/C=C2\S/C(=N\c3nn(-c4ccccc4)nc3C(=O)Nc3nncs3)NC2=O)cc1
- IC50 [3]: 22.63 µg/mL (≈ 44.9 µM)

SMILES: O=C(Nc1ccc([N+](=O)[O-])cc1)c1ccc(-c2nsc(-c3csc(-c4ccncc4)n3)n2)cc1
- IC50 [7]: 110 nM
- IC50 [8]: 110 nM
- IC50 [9]: 110 nM
- IC50 [10]: 110 nM

SMILES: O=C(Nc1ccc(Br)cc1)c1ccc(-c2nsc(-c3csc(-c4ccncc4)n3)n2)cc1
- IC50 [7]: 110 nM
- IC50 [8]: 110 nM
- IC50 [9]: 110 nM
- IC50 [10]: 110 nM

SMILES: O=C1N/C(=N\c2nnc(C34CC5CC(CC(C5)C3)C4)s2)S/C1=C\c1ccc(Br)cc1
- Activity [6]: 66.7%

SMILES: Nc1nn(-c2ccccc2)nc1C(=O)Nc1nncs1
- IC50 [3]: 39.27 µg/mL (≈ 137 µM)

SMILES: O=C(CSc1nnc(NC2CCCCC2)s1)N1N=C(c2ccccc2)CC1c1ccc([N+](=O)[O-])cc1 (centres undefined)
- IC50 [2]: 10000 nM

SMILES: FC(F)(F)c1cccc(Nc2nc(NC(=S)Nc3ccccc3)ns2)c1
- IC50 [4]: 2200 nM
- IC50 [5]: 1300 nM

SMILES: N#Cc1ccc(NC(=O)c2ccc(-c3nsc(-c4csc(-c5ccncc5)n4)n3)cc2)cc1
- IC50 [7]: 110 nM
- IC50 [8]: 110 nM
- IC50 [9]: 110 nM
- IC50 [10]: 110 nM

SMILES: O=C1N/C(=N\c2nnc(C34CC5CC(CC(C5)C3)C4)s2)S/C1=C\c1c(Cl)cccc1Cl
- Activity [6]: 66.7%

SMILES: N=c1cc(N)nc2sc(NC(=O)c3cccs3)nn12
- IC50 [1]: 36100 nM
